Laboratory results reported in patent US12123881B2, “Rap1-Gtp, Rac1-GTP and FMS-like tyrosine kinase 3 ligand (FLT3-L) as biomarkers for early detection of sepsis” (UNM Rainforest Innovations, priority 2018, dated 2024).
Each block holds one molecule with its values, some of them ahead of it.

How the values were obtained:
[1] = system: Rap1; assay: LPS induced GTP loading of Rap1, GTPase activity measured in cell lysates; format: cell-based; conditions: Vero E cells, exposed for 30 min
Text: (§1) To establish a possible mechanistic link connecting GTPase activity, bacteria virulence factors and innate immune response to bacteria, we measured GTPase activity in cell lysates challenged cells with lipopolysaccharide (LPS) a Gram-negative bacterial endotoxin, which stimulates GTP binding to Rap1 in phagocytes and endothelial cells via CD14^18 (FIGS. 1A&B). […] Given the in vitro associations between Flt-3L and Rac1-GTP, we hypothesized that bacterial infection stimulates coordinate-increases in Flt-3L and Rap1-GTP. Furthermore, based on our data we hypothesized that LPS found in Gram negative bacteria, is likely to synergistically upregulate Rap1-GTP in tandem with Flt-3L which stimulates the upregulation of both Rap1-GTP and Rac-GTP. These findings were subsequently built-upon and extended to a retrospective study of longitudinal samples from trauma patients who developed hospital acquired infections. The human plasma samples were analyzed for 41 common inflammatory mediators using the 41plex HCYTMAG-60K-PX41 Cytokine kit, Human (Millipore, MA). In parallel, GTP loading of RhoA, Rac, and Rap1 was measured in cell lysates after their exposure to the plasma samples. […] We have previously disclosed a method of quantitative multiplex measurements of GTP binding to small GTPases. […]
(§2) C. […] GTPase activity was measured in cell lysates after the cells were exposed to LPS or Flt-3L for 30 min.

[2] = biological target: T1, ChemR23 (Homo sapiens, UniProt Q99788); assay: G-Trap measurement of Rac1-GTP in cells challenged with Patient #10's plasma, with the ChemR23 antagonist; format: cell-based; conditions: Patient #10 plasma
T1 construct: endogenous in cells
T1 sequence (Q99788 1-373): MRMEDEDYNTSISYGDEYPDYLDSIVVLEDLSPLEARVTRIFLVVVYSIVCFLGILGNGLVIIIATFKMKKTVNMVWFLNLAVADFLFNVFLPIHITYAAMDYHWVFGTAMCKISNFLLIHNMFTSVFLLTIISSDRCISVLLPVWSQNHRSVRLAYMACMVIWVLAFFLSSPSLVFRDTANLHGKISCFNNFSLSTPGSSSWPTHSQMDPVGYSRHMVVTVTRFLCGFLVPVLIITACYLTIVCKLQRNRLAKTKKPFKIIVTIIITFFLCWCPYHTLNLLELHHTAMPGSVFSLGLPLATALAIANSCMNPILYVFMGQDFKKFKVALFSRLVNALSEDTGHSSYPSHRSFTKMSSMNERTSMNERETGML
Text: As shown in FIGS. 2-4, the inventors use flow cytometry multiplex beads that are functionalized with signaling effector molecules of target GTP bound small GTPases to determine changes in the concentration of active GTPases in the blood plasma of trauma patients before and after a clinically diagnosed infection (FIGS. 6&7). In this setting, the beads capture GTP-bound GTPases in lysates of cells that were challenged with plasma samples of study subjects and then quantitatively analyzed on a flow cytometer.^9
Pilot study Proteomic of Patient #10 and #14 plasma samples. Laser densitometer readings of duplicate patient plasma samples (#10, and #14) were computer analyzed for differential expression of proteins as previously described. Spot data showing significant differences between patient samples and controls were determined from adjusted p-values using FDR (and Bonferroni) analysis as previously described. Ten spots were selected for mass spectrometry analysis. The selection was based on the magnitude of change in expression as well as positive correlation to trends in GTPase activity. Preliminary validation assay were performed Spot #130-CPN for patient 10 and Spot #102; Angiotensinogen for Patient 14, because of their overt connection to GTPase activity profile and the immediate availability of assay tools to confirm their presence. The value proposition of the invention as a clinical decision support tool is illustrated in FIG. 6. FIG. 6A panels show the patient's vital signs, which are indeterminate. The illness history of Patient 10 is summarized in example Case #2 above caption and recapitulated in FIG. 6B. […] The rationale for testing CPN in secondary assays was based on the following. CPN is a metallocarboxypeptidase that regulates complement anaphylatoxins (C3a, C4a, and C5a). [2; 3; 4] For clarity, the expression of carboxypeptidase N (CPN) are superimposed over changes in GTP binding to Rac1 and Rap1 (FIG. 6C) for days 8-11. […] We reasoned that the plasma upregulation of CPN was due to Haemophilus influenzae associated LPS. […] [6; 7; 8] […] [5]

[3] = biological target: T2, ChemR23 (CMKLR1) (Homo sapiens, UniProt Q99788); conditions: read-out: Kd, antagonist for ChemR23; cited from earlier work
T2 sequence (Q99788 1-373): T1 sequence (Q99788 1-373)

[4] = system: Haemophilus influenzae; assay: Clinical course of Patient #10 under antibiotic treatment, tracked by GTPase assay; format: in vivo, human
Text: FIG. 4 G-Trap data readout, showing: A. Histograms of Cyto-Plex™ beads coded with discrete levels of 700 nm fluorescence beads for target GTPases. B&C. Flow cytometry histograms associated with GTPase activity in cell lysates exposed to blood plasma drawn from Patient #10 shown in FIG. 4D on day 0 (pre-infection) and 11 (post infection). D. Quantitative analysis of GTP binding to cytoplex beads in cell lysates treated with plasma drawn from Patient #10: a person was admitted after being crushed by a car. On day 2 a bacterial infection was suspected, thus a sputum culture was ordered and the patient was treated with broad-spectrum antibiotics including vancomycin and piperacillin/tazobactam. […] Patient's blood pressure trended upwards. On day 7, sputum-culture sent on day #2 was determined to be positive for Haemophilus influenzae and antibiotics were changed to 3 days of ceftriaxone (days 7-9). […] The onset of infection was sensitively detected by an increase in GTP binding to Rap1 and Rac1. […] E. Quantitative analysis of GTPase activity induced by Patient #3 plasma (see FIG. 2A-C). F. Quantitative analysis of GTPase activity induced by Patient #13 plasma. […] G Quantitative analysis of GTPase activity induced by Patient #14 plasma; a person admitted with no injuries after a low-speed car collision. […]

[5] = system: Rap1; assay: Flt-3L induced GTP binding to Rap1, GTPase activity measured in cell lysates; format: cell-based; conditions: endothelial cells, exposed for 30 min
Text: as §1, §2

[6] = system: Rac1; assay: Flt-3L induced GTP binding to Rac1, GTPase activity measured in cell lysates; format: cell-based; conditions: cells exposed to Flt-3L
Text: as §1

Molecule: lipopolysaccharide [LPS]
- GTP loading of Rap1 [1]: induced GTP loading of Rap1

- inhibition of GTPase activity ([2]; day 6): 40%
- inhibition of GTPase activity ([2]; day 11): 20%
- inhibition of GTPase activity ([2]; day 12): 25%
Molecule: C[N+](C)(C)CCC(=O)c1cccc2ccccc12.[I-] [α-NETA]
- Kd [3]: ~6 µM

Molecule: CO/N=C(\C(=O)N[C@@H]1C(=O)N2C(C(=O)O)=C(CSc3nc(=O)c(=O)[nH]n3C)CS[C@H]12)c1csc(N)n1 [Ceftriaxone, ceftriaxone]
- treatment outcome indicated by GTPase assay ([4]; Patient #10, 3 days of treatment (days 7-9), read on day 9): failure of treatment
- clinical outcome ([4]; Patient #10, restarted on day 14, lasted 7 days): patient recovery

B1: Flt-3L: hematopoietic four helical bundle cytokine, Fms-like tyrosine kinase-3 ligand (protein, UniProt P49771 27-235, looked up)
Fms-related tyrosine kinase 3 …: TQDCSFQHSPISSDFAVKIRELSDYLLQDYPVTVASNLQDEELCGGLWRLVLAQRWMERLKTVAGSKMQGLLERVNTEIHFVTKCAFQPPPSCLRFVQTNISRLLQETSEQLVALKPWITRQNFSRCLELQCQPDSSTLPPPWSPRPLEATAPTAPQPPLLLLLLLPVGLLLLAAAWCLHWQRTRRRTPRPGEQVPPVPSPQDLLLVEH
- GTP binding to Rap1 [5]: induced GTP binding to Rap1
- GTP binding to Rac1 [6]: elicited GTP binding to Rap1 and Rac1
